Reference: patent US11474106B2, “Methods for cytotoxic chemotherapy-based predictive assays” (ACCELERATED MEDICAL DIAGNOSTICS, INC., priority 2015, dated 2022)

What was measured:
[1] = system: five bladder cancer cell lines (5637, T24, TCCSUP, HT1197, and J82); assay: Oxaliplatin-DNA adducts by AMS in cell culture; assay type: cell-based
Description: (§1) The cell lines were purchased from the American Type Culture Collection (ATCC, Manassas, Va.) and cultured in the recommended media.
Cells were seeded in 60-mm dishes at a density of 1×10^6 cells/dish and allowed to attach overnight in a 37° C. humidified atmosphere containing 5% CO2. […] The cells were then washed twice with phosphate-buffered solution (PBS) and maintained thereafter with oxaliplatin-free culture media. DNA was harvested at hours 0, 2, 4, 8, 24 hours using the modified Wizard procedure described previously. Ten micrograms of DNA per sample was converted to graphite and measured by AMS for ^14C quantification. Triplicate sets of AMS experiments were performed and the data was plotted as time vs oxaliplatin-DNA adducts per 10^8 nt. […] Oxaliplatin-DNA monoadducts could be detected in all cell lines at all time points. […] Therefore, drug-DNA damage from microdoses of oxaliplatin are predictive of the extent of DNA modification caused by the therapeutic dose in cell culture.

[2] = assay type: physicochemical; conditions: 0.5 mg/mL in water
Description: Radiolabeled carboplatin containing C^14 carbon atoms in the cyclobutane dicarboxylic acid group was formulated for human use as a sterile, pyrogen free solution at 5 mg/mL in water.

[3] = Human plasma pharmacokinetics of oxaliplatin microdose; assay type: in vivo; conditions: metastatic breast cancer patient, IV microdose
Description: Single agent oxaliplatin chemotherapy is given by IV at a personalized dose of 130 mg/m^2 of body surface area using the Du Bois and Du Bois formula (Du Bois, D., and E. F. Du Bois. “A formula to estimate the approximate surface area if height and weight be known. 1916.” Nutrition (Burbank, Los Angeles County, Calif.) 5.5 (1989): 303).
Radiolabeled oxaliplatin containing C^14 carbon atoms in the cyclohexane ring was formulated for human use as a sterile, pyrogen free solution at 0.5 mg/mL in water. […] Unlabeled oxaliplatin and [^14C]oxaliplatin were mixed just before dosing to achieve the required microdose, and injected through the peripheral vein at one arm. Peripheral blood specimens were drawn into BD Vacutainer CPT' tubes with sodium heparin from the other arm at specific time points before and after the administration of the microdose. Plasma samples collected at −5 min, 5 min, 15 min, 30 min, 2 h, 4 h, 8 h, 24 h, and 48 h post microdose injection were analyzed by liquid scintillation counting (FIG. 17A).

[4] = system: cancer patients; assay: Patient toxicity related to the microdose; assay type: in vivo, human; conditions: IV microdose, 2.0×10^6 DPM/kg
Description: Radiolabeled carboplatin containing C^14 carbon atoms in the cyclobutane dicarboxylic acid group was formulated for human use as a sterile, pyrogen free solution at 5 mg/mL in water. […] Microdoses of the [^14C]Carboplatin were administered to human cancer patients as a diagnostic reagent, followed by full dose platinum-based chemotherapy and evaluation of response. Within four weeks of the [^14C]carboplatin microdose, these patients received standard of care chemotherapy for their disease, which included either carboplatin or cisplatin. […] Toxicity of the [^14C]carboplatin diagnostic reagent administered as a microdose was assessed using Common Terminology Criteria for Adverse Events (CTCAE).
The dose of carboplatin in the diagnostic microdose was chosen to be sub-toxic and non-therapeutic, to minimize patient chemical and radiation exposure, and to result in AMS measurable carboplatin-DNA monoadducts. Nineteen patients have been administered at least one microdose of [^14C]carboplatin via IV infusion as a diagnostic reagent. Patient toxicity related to the microdose was monitored from the time of IV microdose until the patients received their first chemotherapy.

[5] = system: 5637; assay: Oxaliplatin-DNA adduct formation and repair by AMS; assay type: cell-based, human
Description: (§2) To characterize the oxaliplatin-DNA adduct frequency in these cell lines, cells from each cell line were seeded in 60-mm dishes at a density of 1×10^6 cells/dish and allowed to attach overnight in a 37° C. humidified atmosphere containing 5% CO2. […] The cells were then washed twice with phosphate-buffered solution (PBS) and maintained thereafter with oxaliplatin-free culture media. DNA was harvested at hours 0, 2, 4, 8, 24, 28 and 48 hours using a Promega Wizard DNA Purification Kit. Ten micrograms of DNA per sample was converted to graphite and measured by AMS for ^14C quantification. Triplicate sets of AMS experiments were performed and the data was plotted as time vs oxaliplatin-DNA adducts per 10^8 nt.
(§3) Statistics were calculated with n=3 for each cell line. ANOVA analysis of IC50 and AUC data were based on a one-sided t-test.

[6] = system: 5637R; assay: Oxaliplatin-DNA adduct formation and repair by AMS; assay type: cell-based, human
Description: as §2, §3

[7] = system: PBMC; assay: Microdose-induced oxaliplatin-DNA adduct frequency by AMS; assay type: in vivo, human
Description: The plasma samples were additionally processed to isolate PBMC, and the DNA was extracted and analyzed using AMS to calculate the oxaliplatin-DNA adduct frequency (both monoadducts and diadducts combined) (FIG. 17B). […] These adduct levels then decrease substantially out to 48 hours post microdosing. […] Overall, the plasma PK and time course of oxaliplatin-DNA adduct formation and repair in PBMC allowed determination of the best time to dose patients prior to biopsy in order to maximize the oxaliplatin-DNA adduct formation, allow for repair in those patients with high repair capacity, minimize the risk of radioactive contamination of PBMC and tumor samples, and also minimize the risk of radioactive contamination of the operating room by blood-borne radiocarbon.
Plasma samples were collected, filtered, and counted by liquid scintillation counting to determine plasma oxaliplatin levels. […] The range of microdose-induced adduct levels (frequencies) for the three colorectal patients was 0.1-6 adducts per 10^8 nt.

[8] = Human plasma pharmacokinetics of carboplatin microdose, liquid scintillation counting; assay type: in vivo; conditions: four patients
Description: Although the pharmacokinetics of carboplatin are well known for therapeutic doses, it is not known if human pharmacokinetic parameters obtained using a microdose of carboplatin will track those obtained with therapeutic carboplatin dosing. […] This is a requirement for this diagnostic assay to be predictive of response to a therapeutic dose. The pharmacokinetics of microdose carboplatin were also measured in several different patients along with the kinetics of carboplatin-DNA monoadduct formation and repair in PBMC to establish that 24 hours post administration of a microdose of carboplatin is an appropriate time for sampling a patient for this predictive diagnostic assay.
Two of the bladder cancer patients received two doses of [^14C]carboplatin, including the initial diagnostic microdose and a second microdose at the time of full therapeutic dose. This allowed us to compare the pharmacokinetics of carboplatin in plasma after both microdosing and therapeutic dosing (FIG. 11A). […] Therefore, microdosing and therapeutic dosing yield similar carboplatin pharmacokinetics in human patients.
The pharmacokinetics of carboplatin administered as a microdose was assessed in four patients (two with bladder cancer and two with NSLC) for the purpose of comparing interpatient variability and establishing the optimum time point for tumor biopsy sample acquisition.

[9] = system: H23 2A tumor xenograph; assay: Tumor response to therapeutic carboplatin in xenograft; assay type: in vivo, nude mice; conditions: H23 2A xenograph; single IV 37.3 mg/kg; 14 days
Description: (§4) Xenograft mouse tumors consisting of one carboplatin resistant and one sensitive tumor type were established for in vivo evaluation of carboplatin-DNA monoadduct formation and repair in tumor tissue and for in vivo evaluation of tumor response to therapeutic dosing with carboplatin. Tumor xenografts were established in 1-2 month old nude mice by injecting approximately one million cells into the left and right flanks, and allowed to develop tumors of less than 1 cm^3 over approximately 4 weeks prior to DNA adduct studies. Mice bearing resistant and sensitive tumors were exposed to either a microdose or therapeutic dose of carboplatin by tail vein injection. DNA isolated from tumor tissue was evaluated for carboplatin-DNA monoadduct frequency levels as a function of time. For tumor response, mice bearing resistant and sensitive tumors were therapeutically treated with a single IV injection of 37.3 mg/kg of carboplatin and then examined for tumor growth as assessed by measuring palpable tumors with a caliper and calculating tumor volume.
(§5) Mice xenografted with sensitive (H232A) and resistant (A549) lung cancer cell lines were infused with a therapeutic dose of carboplatin to assess tumor response. The tumors were measured daily over 14 days post infusion (FIG. 10C). Tumor size was normalized as the ratio of tumor diameter to the tumor diameter measured on day 0 (no change=1.0). […]

[10] = system: A549 tumor xenograph; assay: as above; assay type: in vivo, nude mice; conditions: single IV 37.3 mg/kg, 14 days
Description: as §4, §5

[11] = cited from earlier work
[12] = system: 5637R; assay: MTT assay (IC50); assay type: cell-based; conditions: Homo sapiens, 72 hours
Description: (§6) Drug-DNA adduct formation and repair was measured by accelerator mass spectrometry.
To confirm that 5637 was the original ATCC cell line, and that 5637R originated from the parental 5637 cell line, both cultures were sent to the ATCC Cell Line Authentication Service for cell verification per the ATCC protocol. More specifically, fifteen short tandem repeat (STR) loci plus the gender determining locus, amelogenin, were amplified using the commercially available PowerPlex® 16HS Kit from Promega.
(§7) These two cell lines were also cultured with a range of concentrations of cisplatin, carboplatin, gemcitabine, doxorubicin, methotrexate and vinblastine for 72 hours to determine IC50 for these other drugs (FIG. 16C). These drugs were chosen because of their frequent use in the treatment of bladder cancer.

[13] = system: 5637; assay: MTT assay (IC50); assay type: cell-based, human; conditions: Homo sapiens, 72 hours
Description: Thus, we measured the IC50 of the six NSCLC cell lines from Example 2 to both cisplatin and carboplatin to determine if the sensitivity of these six NSCLC cell lines to the two drugs are correlated.
as §1, §6, §7

[14] = 24 hour culture without oxaliplatin
[15] = 5637 (parental, Example 11), MTT

For `N[C@@H]1CCCC[14C@H]1N.O=C([O-])C(=O)[O-].[Pt+2]` [[^14C]oxaliplatin], the “DNA damage concentrations (total oxaliplatin-DNA adducts)” value ([1]; microdose, 0.1 μM oxaliplatin for 4 hours) was 50-100 oxaliplatin-DNA adducts per 10^8 nt, the “DNA damage concentrations (total oxaliplatin-DNA adducts)” value ([1]; therapeutic dose, 10 μM oxaliplatin for 4 hours) was 5,000-10,000 oxaliplatin-DNA adducts per 10^8 nt and the stability to freeze/thaw [2] was “stable to free/thaw with no observed precipitation”. For the same molecule, the “loss of radiopurity per year” value ([2]; storage at −20° C.) was less than 2%, the “T1/2 (α), first (fast) phase” value [3] was 13.3 min and the “tolerability of the radiolabeled microdose” value [4] was “well tolerated”. The “oxaliplatin-DNA adducts at 24 hours” value ([5]; 10 μM for 24 hours) was 710.0±32.2 adducts per 10^8 nucleotide, the repair rate [5, 14] was 1.34±0.30 adducts per 10^8 nucleotides-hour and the “area under curve (AUC) of oxaliplatin-DNA adducts” value ([5]; 48 hour study time period) was 27,720±2,985 adducts per 10^8 nucleotide-hour. For the same molecule, the “oxaliplatin-DNA adducts at 24 hours” value ([6]; 10 μM for 24 hours) was 259.2±37.3 adducts per 10^8 nucleotide, the repair rate [6, 14] was 3.48±0.15 adducts per 10^8 nucleotide-hour and the “area under curve (AUC) of oxaliplatin-DNA adducts” value ([6]; 48 hour study time period) was 9,426±2457 adducts per 10^8 nucleotide-hour. For the same molecule, the “maximum oxaliplatin-DNA adducts in PBMC” value ([7]; metastatic breast cancer patient, microdose, first 4 hours) was 8 adducts per 10^8 nt and the “range of microdose-induced adduct levels (frequencies)” value ([7]; three colorectal patients, PBMC) was 0.1-6 adducts per 10^8 nt.
With `N.N.O=C([O-])C1(C(=O)[O-])CCC1.[Pt+2]` [carboplatin] the “time to clearance from the blood” value [8] was no more than 24 h, the “tumor response (tumor growth)” value [9] was “did not display any growth” and the “tumor response (tumor growth)” value [10] was “continued to grow”. For the same molecule, the “in vivo half-life in patients” value ([11]; in vivo) was 78 to 360 min.
For `COc1cccc2c1C(=O)c1c(O)c3c(c(O)c1C2=O)C[C@@](O)(C(=O)CO)C[C@@H]3O[C@H]1C[C@H](N)[C@H](O)[C@H](C)O1` [doxorubicin], the IC50 ([12]; MTT) was 270 nM and the IC50 [13, 15] was 290 nM.
`Nc1ccn([C@@H]2O[C@H](CO)[C@@H](O)C2(F)F)c(=O)n1` [gemcitabine] showed an IC50 ([12]; MTT) of 1440 nM and an IC50 [13, 15] of 120 nM.
Work on `CN(Cc1cnc2nc(N)nc(N)c2n1)c1ccc(C(=O)N[C@@H](CCC(=O)O)C(=O)O)cc1` [methotrexate] yielded an IC50 ([12]; MTT) of 1240 nM and an IC50 [13, 15] of 2010 nM.
In the case of `O=C1[O][Pt]2([NH][C@@H]3CCCC[C@H]3[NH]2)[O]C1=O` [oxaliplatin, reference compound], the Cmax ([11]; therapeutically treated patients, read-out: plasma Cmax) is listed as roughly 10 µM.
`CC[C@]1(O)C[C@@H]2CN(CCc3c([nH]c4ccccc34)[C@@](C(=O)OC)(c3cc4c(cc3OC)N(C)[C@H]3[C@@](O)(C(=O)OC)[C@H](OC(C)=O)[C@]5(CC)C=CCN6CC[C@]43[C@@H]65)C2)C1` [vinblastine] showed an IC50 [12] of 0.61 nM and an IC50 [13]; 5637 of 0.6 nM.
